The subject of series [1] is phosphorylated Her2/Neu, ERK and AKT pathway markers in MDA361-DYT2. Description: Western blot analysis of pathway markers, MDA361-DYT2. The class given is cell-based, human. The settings on record: 0.1 μg/ml. How it is done:
Cells are plated in 6-well culture plates. 24 hr later, cells are treated with indicated single agents or combined agents for 16 hr in full growth media. Protein lysates are prepared for Western blot analysis as previously described in Yu, K., et al., Endocr. Relat. Cancer. 2001 September :8(3) 249-58.

Series [2] deals with HER2/Neu-overexpressing MDA361-DYT2 breast tumor cells. Briefly: Tumor cell growth assay, HKI-272 and combination, MDA361-DYT2. Format: cell-based, human. As to conditions: in vitro and in vivo. As for the experimental part: Human tumor cell are all obtained from ATCC, and are cultured using standard cell culture methods. Cells are plated in 96-well culture plates at 1000 to 3000 cells per well. One day following plating, cells are treated with various doses of PI3K inhibitor Compound 4 or Compound 5 alone or with a low constant dose of MEK inhibitor 2-(2-chloro-4-iodoanilino)-N-(cycloprorylmethoxy-3,4-difluobenzamide) (1 μg/ml) or UO126 (5 μg/ml). UO126 is also known as 1,4-diamino-2,3-dicyano-1,4-bis[2-aminophenylthio]butadiene. In some experiments, cells are treated alone with various doses of the MEK inhibitor (2-(2-chloro-4-iodoanilino)-N-(cycloprorylmethoxy-3,4-difluobenzamide)), or HER2/neu inhibitor HKI-272, or mTOR inhibitor CCI-779, or with a low constant dose of Compound 4 (0.1 μg/ml). […] Three days after drug treatment, viable cell densities are determined by metabolic conversion (by viable cells) of the dye MTS, an established cell proliferation assay. […] The MTS assay results are read in a 96-well plate reader by measuring absorbance at 490 nm. The effect of each treatment is calculated as percent of control growth relative to the vehicle DMSO-treated cells grown in the same culture plate. […]

Series [3] has as its system LNCaP (human prostate carcinoma). Description: Cell proliferation (MTS) assay, LNCaP. The class given is cell-based. The settings on record: three days treatment; for IC50: Homo sapiens, LNCaP, 72 h. Summed up: (§1)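 Cells plated at about 3000 per well in RPMI-1640/10% FBS were dosed with compound one day later. Viability was read by MTS conversion (absorbance 490 nm, 1–2 h) three days after treatment began. Effect is expressed as percent of vehicle-treated growth on the same plate.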

Series [4] deals with phosphor-AKT (S473) in Rat1 cells. Description: Rat1-IGF1 assay (IGF-1 induced phospho-AKT immunoblot). The class given is cell-based, rat. The settings on record: for IC50: Rattus norvegicus. Summed up:
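After 24 h serum starvation, Rat1 cells got vehicle or varying 17-HWT concentrations for 2 hours, then IGF-1 (100 ng/mL) for 30 minutes. Lysates immunoblotted for phospho-AKT (S473) and total AKT.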

A further series deals with C3H mammary model. The settings on record: cited from earlier work.
In series [5] the test system is T1, PI3K.
T1 construct: PI3K FP IC50
Description: Fluorescence polarization assay for PI3K. Format: biochemical. As to conditions: for IC50: Table 2. An outline of the steps: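 PI3K was preincubated with compound at 1% DMSO final, then reacted with PIP2/ATP substrate for 30-60 min. The reaction was stopped with a detector mix giving 10 nM red probe and 70 nM GST-GRP. Fluorescence polarization (mP, Tamra filters) was read 30-90 min later and IC50 determined.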
A general note: Fluorescence polarisation rises when a labelled molecule tumbles more slowly, as on binding a larger partner.

In series [6] the test system is PI3K. The settings on record: cited from earlier work.
Series [7] deals with DU145 (human prostate carcinoma/lymphocytic leukemia). Briefly: Cell proliferation (MTS) assay, DU145. The class given is cell-based. The settings on record: three days treatment; for IC50: Homo sapiens, DU-145, 72 h. An outline of the steps: as §1
In another series the target is T2, Human TOR (Homo sapiens, UniProt P42345).
T2 construct: FLAG
Briefly: Human TOR (mTOR) kinase assay, DELFIA format. The class given is biochemical. An outline of the steps:
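Purified FLAG-TOR (800 ng/mL) phosphorylates His6-S6K ([…]) with […] ATP in Hepes pH 7.4 buffer containing MnCl2, 2 h at room temperature. Phospho-Thr389 S6K detected by DELFIA using Europium-labelled anti-P(T389)-p70S6K antibody; enzyme inhibition calculated from signal.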

For series [8], the system named is MDA468 (human breast cancer cell). Briefly: Cell proliferation (MTS) assay, MDA468. The class given is cell-based. As to conditions: three days treatment; for IC50: Homo sapiens, 72 h. Summed up:
as §1

Series [9] has as its system MDA435 (human breast adenocarcinoma). Description: Cell proliferation (MTS) assay, MDA435. The class given is cell-based. The settings on record: three days treatment; for IC50: Homo sapiens, MDA435, 72 h. Summed up:
as §1

In brackets after ≈: the same amount, converted by molar mass. Where two headings read alike, the source gives them in different places. Bounds are passed on as bounds.

Usually IC50 stands for the concentration that inhibits the measured activity by half.

As to `CCOc1cc2ncc(C#N)c(Nc3ccc(OCc4ccccn4)c(Cl)c3)c2cc1NC(=O)/C=C/CN(C)C` [HKI-272, (E)-N-{4-[3-chloro-4-(2-pyridinylmethoxy)anilino]-3-cyano-7-ethoxy-6-quinolinyl}-4-(dimethylamino)-2-butenamide], in [1], the “effect on AKT pathway markers” value is “little effect”; the “phosphorylated forms of Her2/Neu and ERK” value is “completely inhibited”. The “sensitivity of MDA361-DYT2 to single agent” value in [2] is given as “resistant”.
In the case of `COC[C@H]1OC(=O)c2coc3c2[C@@]1(C)C1=C(C3=O)[C@@H]2CC[C@H](O)[C@@]2(C)C[C@H]1OC(C)=O` [Compound 17-OH-Wort, 17β-Hydroxywortmannin, reference compound], the “LNCaP IC50” value in series [3] (Table 1) turned out to be 1 µg/mL; in series [3] (Table 2), 0.3 µg/mL. The “Rat1-IGF1 IC50” value in series [4] (Table 1) and in series [4] (Table 2) was under 0.01 µg/mL throughout. Also, the toxicity entry with C3H mammary model (dose of 1.0 mg/kg) was “toxicity”. Also, the antitumor activity entry in the series on C3H mammary model (dose of 0.5 (mg/kg)) is given as “no inhibition”. For the same compound, in the series on PI3K [5] (Table 1), the “PI3K FP IC50” value was determined as 0.0034 µg/mL. Further, the IC50 with PI3K [5] is 2 nM; in the series with PI3K [6] (literature value), 0.5 nM. The “increase in activity relative to wortmannin” value in the series on PI3K [6] (PI3K, literature) is on record as 10 fold. Also, the entries for the “DU145 IC50” value in series [7] (Table 1) and in [7] (Table 2) were 15 µg/mL and 13 µg/mL, respectively. Besides, the “TOR IC50” value on Human TOR (Table 1) came out at 0.076 µg/mL; at Human TOR (Table 2) it was 0.059 µg/mL. Further, the results for the “MDA468 IC50” value in series [8] (Table 1) and in series [8] (Table 2) were 2.3 µg/mL and 3 µg/mL, respectively. Moreover, the “MDA435 IC50” value in series [9] (Table 1) was over 15 µg/mL; in series [9] (Table 2), 20 µg/mL.
Take `COCC1OC(=O)C(=CN(C)CCCC(=O)O)C2=C(O)C(=O)C3=C(C(OC(C)=O)CC4(C)C(O)CCC34)C21C` (stereo not drawn) [Compound 37, 4-[(11-Acetoxy-6,17-dihydroxy-1-methoxymethyl-10,13-dimethyl-3,7-dioxo-1,7,10,11,12,13,14,15,16,17-decahydro-2-oxa-cyclopenta[a]phenanthren-4-ylidenemethyl)-methyl-amino]-butyric acid]: the half-inhibitory concentration (IC50) was 0.2 µg/mL (≈ 0.365 µM) in series [3] (Table 2); 0.1 µg/mL (≈ 0.183 µM) in [4] (Table 2); 193 nM with PI3K [5]; 21 µg/mL (≈ 38.3 µM) in [7] (Table 2); 12600 nM against Human TOR (Table 2); 4 µg/mL (≈ 7.3 µM) in [8] (Table 2). This compound had an IC50 in series [9] (Table 2) of 12 µg/mL (≈ 21.9 µM).
For the compound `COCC1OC(=O)C(=CN(C)C(C)(C)C)C2=C(O)C(=O)C3=C(C(OC(C)=O)CC4(C)C(O)CCC34)C21C` (stereo not drawn) [Compound 20, Acetic acid 4-[(tert-butyl-methyl-amino)-methylene]-6,17-dihydroxy-1-methoxymethyl-10,13-dimethyl-3,7-dioxo-1,3,4,7,10,11,12,13,14,15,16,17-dodecahydro-2-oxa-cyclopenta[a]phenanthren-11-yl ester], the IC50 in [3] (Table 2) was 0.06 µg/mL (≈ 0.116 µM); in series [4] (Table 2) it was over 0.1 µg/mL; in the series with PI3K [5] it was 440 nM; in series [7] (Table 2), 1.1 µg/mL (≈ 2.13 µM); against Human TOR (Table 2), over 19300 nM; in series [8] (Table 2), 0.62 µg/mL (≈ 1.2 µM). The compound further returned an IC50 in series [9] (Table 2) of 5 µg/mL (≈ 9.66 µM).
For the compound `COCC1OC(=O)C(=CN2CCC(C(=O)O)CC2)C2=C(O)C(=O)C3=C(C(OC(C)=O)CC4(C)C(O)CCC34)C21C` (stereo not drawn) [Compound 23, 1-(11-Acetoxy-6,17-dihydroxy-1-methoxymethyl-10,13-dimethyl-3,7-dioxo-1,7,10,11,12,13,14,15,16,17-decahydro-2-oxa-cyclopenta[a]phenanthren-4-ylidenemethyl)-piperidine-4-carboxylic acid], the half-inhibitory concentration (IC50) was 0.28 µg/mL (≈ 0.5 µM) in [3] (Table 2); 0.1 µg/mL (≈ 0.179 µM) in [4] (Table 2); 33 nM in the series with PI3K [5]; 17 µg/mL (≈ 30.4 µM) in series [7] (Table 2); 822 nM at Human TOR (Table 2); 4 µg/mL (≈ 7.15 µM) in series [8] (Table 2). In series [9] (Table 2), this compound yielded a concentration for half-maximal inhibition (IC50) of 17 µg/mL (≈ 30.4 µM).
